Reference: patent US20230226109A1, “METHOD FOR DIFFERENTIATING INNATE LYMPHOID CELLS FOR IMMUNOTHERAPY” (The Board of Trustees of the Leland Stanford Junior …, priority 2019, published 2023)

Experiments:
peripheral NK cells [1] = test: in vitro differentiation of peripheral NK cells into ielLC1-like cells, co-culture with epithelial feeder cells; assay type: cell-based, human
Description: (A) Protocol for in vitro differentiation of peripheral NK cells into ielLC1-like cells. In brief, PCI13 cells were seeded into a culture plate, then peripheral NK cells were sorted and added to the culture (ratio 10NK:1PCI13) in the presence or not of IL15 (10 ng/mL). After 4 days of co-culture, NK cells were harvested for phenotypic and functional analysis. (B, LEFT) Dot plots show the expression of CD49a and CD103 on gated Lin^−CD45^+CD56^+ NK cells, after culture of NK with PCI13 and IL15 (10 ng/mL) or control conditions. […] (C-D) Functional response of in vitro differentiated ielLC1-like cells. […] (D) After in vitro differentiation, CD49a^− and CD49a^+ cells were sorted and mixed with PCI13 (10^6 NK cells:5.10^6 PCI13) and injected subcutaneously in the flank of NSG mice. Then, tumor volume was measured over time. […] (E) Sorted CD49a^+ and CD49a^− NK cells were assessed for expression of NR4A1, NR4A2, and NR4A3 by qRT-PCR.
In a summary of the protocol for in vitro differentiation of peripheral conventional NK cells into ielLC1-like cells: sorted, enriched, or expanded peripheral NK cells in the presence of IL15 are seeded into culture with cells such as HNSCC, which may be irradiated, or onto plate surfaces that mimic select attributes of these cells. After a suitable period of time for culture, e.g. about 4 days, the differentiated cells are harvested for analysis and effector functions.
• HNSCC cells were harvested from their culture, washed with PBS and counted. • HNSCC cells were then resuspended in media for co-culture, and seeded into plates as follows:
• NK were resuspended with media containing IL-15. • NK cells were added to the co-culture as follows:
• On day 2, half of the supernatant was replaced with fresh media containing IL-15 (20 ng/mL). Harvesting and use of ielLC1-Like Cells. • On day 4, ILC1-like cells were harvested. • Note: The harvested cells were ielLC1-like cells. HNSCC cells were killed during the culture. • ILC1-like cells were washed with PBS and counted. • ILC1-like cells were then used for phenotypic analysis and functional assays.

peripheral NK cells [2] = test: in vivo differentiation of peripheral NK cells injected intra-tumor into PCI13 tumors; parameters: species or system NSG mice; settings: IL15 5 μg/mouse every 2 days, tumors harvested after 6 days
Description: (A) Protocol used to evaluate the in vivo differentiation of peripheral NK cells into ILC1-like cells. In brief, 10^6 PCI13 were subcutaneously injected in the flank of NSG mice, after 10-15 days (when the tumor were palpable) peripheral NK cells were obtained from blood and were injected intra-tumor. Mice were treated or not with IL15 (5 μg/mouse) every 2 days. After 6 days, tumors were harvested and the phenotype and function of intra-tumoral NK cells were assessed. (B) According to the protocol described in (A), sorted Lin^−CD56^+ NK cells were intra-tumor injected. […] (C-D) According to the protocol described in (A), sorted Lin^−CD56^+CD94^+CD16^− Stage 4b NK cells were intra-tumor injected. (C, LEFT) Dot plots show the expression of CD49a and CD103 on NK cells obtained following intra-tumor injection of sorted stage 4b NK cells, in the presence or not of IL15 in vivo. […]
10^6 PCI13 tumor cells were subcutaneously injected in the flank of NSG mice, after 10-15 days (when the tumor were palpable) peripheral NK cells were obtained from blood and were injected intra-tumor. […] After 6 days, tumors were harvested and the phenotype and function of intra-tumoral NK cells were assessed.

NK cells = test: feeder cell-free culture of NK cells, differentiation into ielLC1-like cells; assay type: cell-based, human; settings: culture plates with or without E-Cadherin coating, NK cells with IL-15, no feeder cells
Description: FIG. 7: Co-culture of peripheral NK cells with IL-15 and TGFbeta enhances differentiation into ielLC1-like cells. (A) Using a co-culture system similar to FIG. 5A, NK cells were co-cultured with MDCK (top) or PCI-13 (bottom) in the presence of IL-15 and either the TGFbeta receptor 2 inhibitor ITD1 or the ALK receptor inhibitor SB-431542 or TGFb.
FIG. 11: Feeder cell-free culture of NK cells with extracellular matrix components can induce ielLC1-like cell differentiation. Culture plates with or without E-Cadherin coating was used to culture NK cells with IL-15.

[3] = NK cells co-cultured with MDCK or PCI-13 in the presence of IL-15
[4] = NK cells with IL-15 and PCI-13 carcinoma cells

TGFb
ielLC1-like cell differentiation (peripheral NK cells [1]; [3]): stimulation of the ielLC1-like phenotype

CCOC(=O)C1=C(C)NC2=C(C(=O)CC(C)(C)C2)C1c1ccc(-c2ccccc2)cc1 (centres unmarked) [ITD1]
ielLC1-like cell differentiation (peripheral NK cells [1]; [3]): significant inhibition of ielLC1-like cell differentiation

Cc1ccccc1N=Nc1ccc(NC(=O)c2ccnn2C)c(C)c1 [CH-223191]
ielLC1-like cell differentiation (peripheral NK cells [1]; [4]): profound reduction of ielLC1-like differentiation

NC(=O)c1ccc(-c2nc(-c3ccc4c(c3)OCO4)c(-c3ccccn3)[nH]2)cc1 [SB-431542]
ielLC1-like cell differentiation (peripheral NK cells [1]; [3]): significant inhibition of ielLC1-like cell differentiation

O=Cc1c2[nH]c3ccccc3c2cc2[nH]c3ccccc3c12 [FICZ]
ielLC1-like cell differentiation (peripheral NK cells [1]; [4]): promoted the ielLC1-like differentiation

IL-15: 14-15 kDa glycoprotein cytokine (BioLegend; Cat #570306)
differentiation of peripheral NK into ielLC1-like cells (CD49a+, CD49a+CD103+) (peripheral NK cells [1]; NK with PCI13 (ratio 10NK:1PCI13), IL15 10 ng/mL, 4 days): promotes differentiation of peripheral NK into ielLC1-like cells
differentiation of peripheral NK into ielLC1-like cells in vivo (peripheral NK cells [2]): promotes differentiation of peripheral NK into ielLC1-like cells in vivo

B1: E-Cadherin: coating of culture plates, extracellular matrix component, used without feeder cells (protein, UniProt P12830 155-882, looked up)
Cadherin-1: DWVIPPISCPENEKGPFPKNLVQIKSNKDKEGKVFYSITGQGADTPPVGVFIIERETGWLKVTEPLDRERIATYTLFSHAVSSNGNAVEDPMEILITVTDQNDNKPEFTQEVFKGSVMEGALPGTSVMEVTATDADDDVNTYNAAIAYTILSQDPELPDKNMFTINRNTGVISVVTTGLDRESFPTYTLVVQAADLQGEGLSTTATAVITVTDTNDNPPIFNPTTYKGQVPENEANVVITTLKVTDADAPNTPAWEAVYTILNDDGGQFVVTTNPVNNDGILKTAKGLDFEAKQQYILHVAVTNVVPFEVSLTTSTATVTVDVLDVNEAPIFVPPEKRVEVSEDFGVGQEITSYTAQEPDTFMEQKITYRIWRDTANWLEINPDTGAISTRAELDREDFEHVKNSTYTALIIATDNGSPVATGTGTLLLILSDVNDNAPIPEPRTIFFCERNPKPQVINIIDADLPPNTSPFTAELTHGASANWTIQYNDPTQESIILKPKMALEVGDYKINLKLMDNQNKDQVTTLEVSVCDCEGAAGVCRKAQPVEAGLQIPAILGILGGILALLILILLLLLFLRRRAVVKEPLLPPEDDTRDNVYYYDEEGGGEEDQDFDLSQLHRGLDARPEVTRNDVAPTLMSVPRYLPRPANPDEIGNFIDENLKAADTDPTAPPYDSLLVFDYEGSGSEAASLSSLNSSESDKDQDYDYLNEWGNRFKKLADMYGGGEDD
formation of ielLC1-like cells (NK cells): enhanced formation of the ielLC1-like cells
